Laboratory results taken from patent publication US4073902A, “O-Substituted 7β-amino-3-cephem-3-ol-4-carboxylic acid compounds” (priority 1972, dated 1978).

What was measured:
Shigella flexneri 11836 = assay: oral ED50, systemic infection in mice; type: in vivo, Shigella flexneri; female MF 2 mice; details: p.o., 2 doses
[1] = system: Staphylococcus aureus 10B; assay: oral ED50, systemic infection in mice; details: in Mus musculus, read-out: oral ED50
From the text: (§1) *single dose of antibiotic administered immediately after infection

S. aureus 2999 i^+ p^+ = assay: oral ED50, systemic infection in mice; details: Staphylococcus aureus, in Mus musculus, read-out: oral ED50
From the text: as §1

[2] = system: S. aureus 102 (methicillin res.); assay: oral ED50, systemic infection in mice; details: Staphylococcus aureus, in Mus musculus, read-out: oral ED50
From the text: as §1

[3] = system: Streptococcus pyogenes 38; assay: oral ED50, systemic infection in mice; details: Streptococcus pyogenes, 38, in Mus musculus, 3 h, read-out: oral ED50
S. pyogenes Aronson = assay: oral ED50, systemic infection in mice; details: Streptococcus pyogenes, in Mus musculus, read-out: oral ED50
[4] = system: Diplococcus pneumoniae 111/84; assay: oral ED50, systemic infection in mice; details: Streptococcus pneumoniae, 111/84, in Mus musculus, read-out: oral ED50
Escherichia coli 205 = assay: oral ED50, systemic infection in mice; details: Escherichia coli, 205, in Mus musculus, read-out: oral ED50
E. coli 205 R^+TEM = assay: oral ED50, systemic infection in mice; details: Escherichia coli, in Mus musculus, read-out: oral ED50
From the text: (§2) **two doses; the first administered immediately after infection, the

E. coli 2018 = assay: oral ED50, systemic infection in mice; details: Escherichia coli, 2018, in Mus musculus, read-out: oral ED50
From the text: as §2

E. coli 2018 R^+TEM = assay: oral ED50, systemic infection in mice; details: Escherichia coli, in Mus musculus, read-out: oral ED50
From the text: as §2

E. coli 2 = assay: oral ED50, systemic infection in mice; details: Escherichia coli, 2, in Mus musculus, read-out: oral ED50
From the text: as §2

E. coli 5 = assay: oral ED50, systemic infection in mice; details: Escherichia coli, 5, in Mus musculus, read-out: oral ED50
From the text: as §2

E. coli 9 = assay: oral ED50, systemic infection in mice; details: Escherichia coli, 9, in Mus musculus, read-out: oral ED50
From the text: as §2

E. coli 16 = assay: oral ED50, systemic infection in mice; details: Escherichia coli, 16, in Mus musculus, read-out: oral ED50
From the text: as §2

E. coli 9-25.1. = assay: oral ED50, systemic infection in mice; details: Escherichia coli, 925.1., in Mus musculus, read-out: oral ED50
From the text: as §2

E. coli 1239/19 = assay: oral ED50, systemic infection in mice; details: Escherichia coli, 1239/19, in Mus musculus, read-out: oral ED50
From the text: as §2

[5] = system: Salmonella typhimurium 273; assay: oral ED50, systemic infection in mice; details: Salmonella enterica, in Mus musculus, read-out: oral ED50
From the text: as §2

S. typhimurium 277 = assay: oral ED50, systemic infection in mice; details: Salmonella enterica, in Mus musculus, read-out: oral ED50
[6] = system: Klebsiella pneumoniae 327; assay: oral ED50, systemic infection in mice; details: Klebsiella pneumoniae, 327, in Mus musculus, read-out: oral ED50
K. pneumoniae 329 = assay: oral ED50, systemic infection in mice; details: Klebsiella pneumoniae, 329, in Mus musculus, read-out: oral ED50
[7] = system: Enterobacter cloacae P 99; assay: oral ED50, systemic infection in mice; details: P99, in Mus musculus, read-out: oral ED50
proteus morganii 2359 = assay: oral ED50, systemic infection in mice; details: Morganella morganii, 2359, in Mus musculus, read-out: oral ED50
P. vulgaris 1076 = assay: oral ED50, systemic infection in mice; details: Proteus vulgaris, 1076, in Mus musculus, read-out: oral ED50
P. rettgeri 856 = assay: oral ED50, systemic infection in mice; details: Providencia rettgeri, 856, in Mus musculus, read-out: oral ED50
P. mirabilis 774 = assay: oral ED50, systemic infection in mice; details: Proteus mirabilis, 774, in Mus musculus, read-out: oral ED50
Serratia marcescens 344 = assay: oral ED50, systemic infection in mice; details: Serratia marcescens, 344, in Mus musculus, read-out: oral ED50
Pasteurella multocid 341 = assay: oral ED50, systemic infection in mice; details: Pasteurella, 341, in Mus musculus, read-out: oral ED50
[8] = system: Pseudomonas aeruginosa 799; assay: oral ED50, systemic infection in mice; details: Pseudomonas aeruginosa, 799, in Mus musculus, read-out: oral ED50
in vivo = details: mouse, in vivo
From the text: ^a calcultated according to Miller-Tainter ± standard error (Proc.
^b calculated according to the Probit-method with 95% confidence
limits (Goulden A., Methods of Statistical Analysis, J. Wiley and Sons, […]

Compound	ED50 (Shigella flexneri 11836) [mg/kg]	ED50 [1] [mg/kg]	ED50 (S. aureus 2999 i^+ p^+) [mg/kg]	ED50 [2] [mg/kg]	ED50 [3] [mg/kg]	ED50 (S. pyogenes Aronson) [mg/kg]	ED50 [4] [mg/kg]	ED50 (Escherichia coli 205) [mg/kg]	ED50 (E. coli 205 R^+TEM) [mg/kg]	ED50 (E. coli 2018) [mg/kg]	ED50 (E. coli 2018 R^+TEM) [mg/kg]	ED50 (E. coli 2) [mg/kg]	ED50 (E. coli 5) [mg/kg]	ED50 (E. coli 9) [mg/kg]	ED50 (E. coli 16) [mg/kg]	ED50 (E. coli 9-25.1.) [mg/kg]	ED50 (E. coli 1239/19) [mg/kg]	ED50 [5] [mg/kg]	ED50 (S. typhimurium 277) [mg/kg]	ED50 [6] [mg/kg]	also measured
CC1=C(C(=O)O)N2C(=O)[C@@H](NC(=O)[C@H](N)c3ccccc3)[C@H]2SC1 [cephalexin]	7	6.6	85	120	6	6.3	30	40	40	13	25	> 1000	28	90	> 300	> 300	20	140	100	105	ED50 (K. pneumoniae 329): 47 mg/kg; ED50 [7]: > 300 mg/kg; ED50 (proteus morganii 2359): > 1000 mg/kg; ED50 (P. vulgaris 1076): 45 mg/kg; ED50 (P. rettgeri 856): 15 to 30 mg/kg; ED50 (P. mirabilis 774): 80 mg/kg; ED50 (Serratia marcescens 344): > 300 mg/kg; ED50 (Pasteurella multocid 341): 66 mg/kg; ED50 [8]: > 1000 mg/kg
COC1=C(C(=O)O)N2C(=O)[C@@H](NC(=O)[C@H](N)c3ccccc3)[C@H]2SC1 [compound II]	20	6	210	100	7.5	2.5	16	22	48	15	38	> 1000	13	210	> 300	> 300	12	60	65	75	LD50 (in vivo; ip): 3800 ± 290 mg/kg; LD50 (in vivo; po): > 6000 mg/kg; ED50 (K. pneumoniae 329): 35 mg/kg; ED50 [7]: > 300 mg/kg; ED50 (proteus morganii 2359): > 300 mg/kg; ED50 (P. vulgaris 1076): 25 mg/kg; ED50 (P. rettgeri 856): 14 mg/kg; ED50 (P. mirabilis 774): 54 mg/kg; ED50 (Serratia marcescens 344): > 1000 mg/kg; ED50 (Pasteurella multocid 341): ~20 mg/kg; ED50 [8]: > 300 mg/kg
